The target in one data set is T7 Enzyme Mix (Escherichia phage T7, UniProt P00573). Kind of data set: In vitro transcription mRNA synthesis with cap analog, reaction yield. Type of data set: biochemical. The following applies: per ml transcription reaction system; 37° C. for 6 h; LiCl purification. The protocol: 1. Before synthesizing mRNA, linearize the plasmid with Notl, digested at […] overnight;
2. Extract with DNA template;
React at 37° C. for 6 h. Digest with TURBO DNase for 15 min.
4. Purify the transcription products using LiCl solution and calculate the reaction yields.

The subject of a further data set is mRNA. The data set can be described thus: mRNA capping rate by RNase H cleavage and LC-MS. Type of data set: biochemical. The settings on record: ratio of capped and uncapped mRNA. The source says:
The mRNA molecules with different Cap structures obtained in Example 1 were subjected to enzymatic cleavage, and the ratio of capped and uncapped mRNA molecules could be determined in a liquid chromatography-mass spectrometry analysis experiment.
1. Concentrate the beads using a magnet, aspirate the supernatant storage solution, and add an equal volume of 0.1 M NaOH +0.05 M NaCl;
2. Aspirate the supernatant and resuspend the beads with an equal volume of 0.1 M NaCl, keep the concentration constant;
3. Anneal mRNA and cleavage tags, configure the following reaction system;
Gradient annealing: 95° C. 5 min
4. Combining cleavage tags with beads • Beads were centrifuged at 15,000 g for 5 min, and the supernatant was removed, then 120 μl of annealed mRNA and tags were added and incubated for 30 min at room temperature, during which time they were gently shaken to ensure adequate binding.
5. Enzyme cleavage using RNase H; • Add 10 μl RNase H and incubate at 37° C. for 3 h. Precipitate the beads with magnet and discard the supernatant. • Add 100 μl washing buffer, mix thoroughly, magnet precipitate for 2 min, and discard the supernatant. Repeat 3 times. • Wash with DI water for 3 times.
6. Hydrolysis with RppH; • Use 10 units RppH in nebuffer 2 to hydrolyze at room temperature for 1 h.
DI water was aspirated, 100 μl of 75% ethanol preheated to 80° C. was added, incubat for 3 min, and magnet precipitat for 3 min. The supernatant was taken, followed by evaporating, and centrifuge for 45 min to a volume of 10 μl. Finally, the sample was resuspended in 50 μl of […] EDTA/1% MeOH and left for LC-MS analysis.
9. the mRNA capping rate of different Cap analogs synthesized was analyzed with LC-MS.

Data set [1] deals with TLR3, TLR7, TLR8 and RIG-1. Kind of data set: Intracellular immunogenicity of capped mRNA by RNA immunoprecipitation and quantitative PCR. The class given is cell-based. The settings on record: relative to ARCA; Human-derived PBMC cells, 5 μg mRNA, Lipofectamine 2000, 24 h. How it is done:
Experimental methods: the intracellular immunoproteins TLR3, TLR7, TLR8 and RIG-1 were immunoprecipitated together with their bound RNAs by RNA immunoprecipitation, and finally these mRNAs were identified by real-time quantitative PCR, and their relative abundance was proportional to their immunogenicity.
The cells were collected by trypsin digestion 24 h later and resuspended in PBS, centrifuged, and collected.
Fixative was added to the cells, and after 15 minutes glycine was added for termination of fixation, followed by centrifugation to collect the cells. Cells were resuspended by adding lysate, incubated on ice at 4° C. for 30 min, centrifuged at 2400 g for 10 min, and the supernatant was collected.
TLR3, TLR7, TLR8 and RIG-1 antibodies (2-10 μg) were added to the supernatant (6-10 mg) followed by gentle incubation at 4° C. for 2 hours. Protein AIG beads (40 μL) were then added to them and incubated gently for 1 h at 4° C.
Centrifuge at 2500 rpm for 30 seconds with precipitated magnetic beads and remove the supernatant. Resuspend the beads in 500 μL of RIP buffer. Wash in RIP buffer a total of three times, followed by one wash in PBS.
Resuspend magnetic beads in TRIzol RNA Extraction Reagent (1 mL) and isolate co-precipitated RNA, and then elute RNA using nuclease-free water (20 μL).
6. Reverse transcribe (RT) the RNA into cDNA and design primers according to the mRNA sequence for quantitative PCR analysis. mRNA immunogenicity is proportional to the number of mRNA copies precipitated by magnetic beads.

Molecules are shown by their SMILES.

T7 Enzyme Mix, sequence (P00573 whole entry): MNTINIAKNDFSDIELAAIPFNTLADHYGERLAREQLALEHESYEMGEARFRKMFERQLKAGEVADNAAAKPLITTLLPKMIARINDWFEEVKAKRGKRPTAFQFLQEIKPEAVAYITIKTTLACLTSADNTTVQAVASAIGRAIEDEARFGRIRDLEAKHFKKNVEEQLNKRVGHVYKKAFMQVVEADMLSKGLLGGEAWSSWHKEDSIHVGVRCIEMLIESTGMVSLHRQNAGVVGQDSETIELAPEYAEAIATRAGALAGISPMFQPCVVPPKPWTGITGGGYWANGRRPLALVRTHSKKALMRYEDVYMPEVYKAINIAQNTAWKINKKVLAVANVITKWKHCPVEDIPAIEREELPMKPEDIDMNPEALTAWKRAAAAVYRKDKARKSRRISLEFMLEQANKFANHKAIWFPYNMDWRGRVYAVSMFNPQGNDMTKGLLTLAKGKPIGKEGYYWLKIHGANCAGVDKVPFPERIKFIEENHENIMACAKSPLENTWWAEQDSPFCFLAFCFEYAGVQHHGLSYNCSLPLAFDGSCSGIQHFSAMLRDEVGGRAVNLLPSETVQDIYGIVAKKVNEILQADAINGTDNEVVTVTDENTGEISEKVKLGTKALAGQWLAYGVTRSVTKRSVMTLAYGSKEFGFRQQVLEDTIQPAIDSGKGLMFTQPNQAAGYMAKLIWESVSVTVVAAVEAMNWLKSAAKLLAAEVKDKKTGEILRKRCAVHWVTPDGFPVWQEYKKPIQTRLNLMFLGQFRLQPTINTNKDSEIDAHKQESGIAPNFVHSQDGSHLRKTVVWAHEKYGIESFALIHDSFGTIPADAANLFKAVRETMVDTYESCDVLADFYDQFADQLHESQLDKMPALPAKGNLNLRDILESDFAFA

Regarding `CO[C@@H]1[C@H](O)[C@@H](COP(=O)(O)O[C@H]2[C@@H](OC)[C@H](n3cnc4c(N)ncnc43)O[C@@H]2COP(=O)(O)OP(=O)(O)OP(=O)([O-])OC[C@H]2O[C@@H](n3c[n+](C)c4c(=O)[nH]c(N)nc43)[C@H](O)[C@@H]2OC)O[C@H]1n1ccc(=O)[nH]c1=O` [Cap analog 29, 3-O-Me-m7G(5′)ppp(5′)(2′OMeA)p(2′OMeU)], at T7 Enzyme Mix, the “Mass of final product obtained from 1 ml mRNA synthesis reaction system” value (“Mass of final product obtained” for short) was 5.3 mg. For the same compound, the “mRNA capping rates when using different Cap structures” value with mRNA turned out to be 94.93%. In data set [1], the “Intracellular immunogenicity of mRNA when using different Cap structures” value amounted to 0.27.
On the same counts, the results for `CO[C@@H]1[C@H](O)[C@@H](COP(=O)(O)O[C@H]2[C@@H](OC)[C@H](n3cnc4c(N)ncnc43)O[C@@H]2COP(=O)(O)OP(=O)(O)OP(=O)([O-])OC[C@H]2O[C@@H](n3c[n+](C)c4c(=O)[nH]c(N)nc43)[C@H](O)[C@@H]2O)O[C@H]1n1cnc2c(N)ncnc21` [Cap analog 5, m7G(5′)ppp(5′)(2′OMeA)p(2′OMeA)] are 4.4 mg, 94.88% and 0.52.
For `CO[C@@H]1[C@H](O)[C@@H](COP(=O)(O)O[C@H]2[C@@H](OC)[C@H](n3cnc4c(=O)[nH]c(N)nc43)O[C@@H]2COP(=O)(O)OP(=O)(O)OP(=O)([O-])OC[C@H]2O[C@@H](n3c[n+](C)c4c(=O)[nH]c(N)nc43)[C@H](O)[C@@H]2O)O[C@H]1n1ccc(N)nc1=O` [Cap analog 10, m7G(5′)ppp(5′)(2′OMeG)p(2′OMeC)], in that order: 6.0 mg, 94.93% and 0.18.
In the case of `CO[C@@H]1[C@H](O)[C@@H](COP(=O)(O)O[C@H]2[C@@H](OC)[C@H](n3cnc4c(=O)[nH]c(N)nc43)O[C@@H]2COP(=O)(O)OP(=O)(O)OP(=O)([O-])OC[C@H]2O[C@@H](n3c[n+](C)c4c(=O)[nH]c(N)nc43)[C@H](O)[C@@H]2OC)O[C@H]1n1cnc2c(=O)[nH]c(N)nc21` [Cap analog 18, 3-O-Me-m7G(5′)ppp(5′)(2′OMeG)p(2′OMeG)], on T7 Enzyme Mix, the “Mass of final product obtained” value turned out to be 4.1 mg. The “mRNA capping rates when using different Cap structures” value in the data set with mRNA turned out to be 94.98%. Also, in data set [1], the “Intracellular immunogenicity of mRNA when using different Cap structures” value amounted to 0.31.
On the same counts, the results for `CO[C@@H]1[C@H](O)[C@@H](COP(=O)(O)O[C@H]2[C@@H](OC)[C@H](n3cnc4c(=O)[nH]c(N)nc43)O[C@@H]2COP(=O)(O)OP(=O)(O)OP(=O)([O-])OC[C@H]2O[C@@H](n3c[n+](C)c4c(=O)[nH]c(N)nc43)[C@H](O)[C@@H]2O)O[C@H]1n1cnc2c(N)ncnc21` [Cap analog 6, m7G(5′)ppp(5′)(2′OMeG)p(2′OMeA)] are 5.1 mg, 94.65% and 0.38.
On the same counts, the results for `CO[C@@H]1[C@H](OP(=O)(O)OC[C@H]2O[C@@H](n3cnc4c(=O)[nH]c(N)nc43)[C@H](OC)[C@@H]2O)[C@@H](COP(=O)(O)OP(=O)(O)OP(=O)([O-])OC[C@H]2O[C@@H](n3c[n+](C)c4c(=O)[nH]c(N)nc43)[C@H](O)[C@@H]2OC)O[C@H]1n1ccc(N)nc1=O` [Cap analog 19, 3-O-Me-m7G(5′)ppp(5′)(2′OMeC)p(2′OMeG)] are 4.4 mg, 95% and 0.26.
For `CO[C@@H]1[C@H](OP(=O)(O)OC[C@H]2O[C@@H](n3cnc4c(N)ncnc43)[C@H](OC)[C@@H]2O)[C@@H](COP(=O)(O)OP(=O)(O)OP(=O)([O-])OC[C@H]2O[C@@H](n3c[n+](C)c4c(=O)[nH]c(N)nc43)[C@H](O)[C@@H]2OC)O[C@H]1n1ccc(N)nc1=O` [Cap analog 23, 3-O-Me-m7G(5′)ppp(5′)(2′OMeC)p(2′OMeA)], in that order: 4.5 mg, 94.65% and 0.41.
Take `CO[C@@H]1[C@H](O)[C@@H](COP(=O)(O)O[C@H]2[C@@H](OC)[C@H](n3cnc4c(=O)[nH]c(N)nc43)O[C@@H]2COP(=O)(O)OP(=O)(O)OP(=O)([O-])OC[C@H]2O[C@@H](n3c[n+](C)c4c(=O)[nH]c(N)nc43)[C@H](O)[C@@H]2O)O[C@H]1n1ccc(=O)[nH]c1=O` [Cap analog 14, m7G(5′)ppp(5′)(2′OMeG)p(2′OMeU)]: the “Mass of final product obtained” value on T7 Enzyme Mix stood at 5.5 mg. Moreover, the “mRNA capping rates when using different Cap structures” value in the data set on mRNA is recorded as 94.82%. The “Intracellular immunogenicity of mRNA when using different Cap structures” value in data set [1] worked out at 0.35.
On the same counts, the results for `CO[C@@H]1[C@H](OP(=O)(O)OC[C@H]2O[C@@H](n3cnc4c(=O)[nH]c(N)nc43)[C@H](OC)[C@@H]2O)[C@@H](COP(=O)(O)OP(=O)(O)OP(=O)([O-])OC[C@H]2O[C@@H](n3c[n+](C)c4c(=O)[nH]c(N)nc43)[C@H](O)[C@@H]2O)O[C@H]1n1ccc(N)nc1=O` [Cap analog 3, m7G(5′)ppp(5′)(2′OMeC)p(2′OMeG)] are 5.8 mg, 94.82% and 0.28.
On the same counts, the results for `CO[C@@H]1[C@H](O)[C@@H](COP(=O)(O)O[C@H]2[C@@H](OC)[C@H](n3ccc(N)nc3=O)O[C@@H]2COP(=O)(O)OP(=O)(O)OP(=O)([O-])OC[C@H]2O[C@@H](n3c[n+](C)c4c(=O)[nH]c(N)nc43)[C@H](O)[C@@H]2O)O[C@H]1n1ccc(=O)[nH]c1=O` [Cap analog 15, m7G(5′)ppp(5′)(2′OMeC)p(2′OMeU)] are 4.6 mg, 94.83% and 0.34.
For `CO[C@@H]1[C@H](O)[C@@H](COP(=O)(O)O[C@H]2[C@@H](OC)[C@H](n3ccc(N)nc3=O)O[C@@H]2COP(=O)(O)OP(=O)(O)OP(=O)([O-])OC[C@H]2O[C@@H](n3c[n+](C)c4c(=O)[nH]c(N)nc43)[C@H](O)[C@@H]2OC)O[C@H]1n1ccc(=O)[nH]c1=O` [Cap analog 31, 3-O-Me-m7G(5′)ppp(5′)(2′OMeC)p(2′OMeU)], the “Mass of final product obtained” value on T7 Enzyme Mix stood at 4.5 mg. Besides, the “mRNA capping rates when using different Cap structures” value with mRNA turned out to be 94.7%. The “Intracellular immunogenicity of mRNA when using different Cap structures” value in data set [1] is 0.4.
For `CO[C@@H]1[C@H](O)[C@@H](COP(=O)(O)O[C@H]2[C@@H](OC)[C@H](n3ccc(N)nc3=O)O[C@@H]2COP(=O)(O)OP(=O)(O)OP(=O)([O-])OC[C@H]2O[C@@H](n3c[n+](C)c4c(=O)[nH]c(N)nc43)[C@H](O)[C@@H]2OC)O[C@H]1n1ccc(N)nc1=O` [Cap analog 27, 3-O-Me-m7G(5′)ppp(5′)(2′OMeC)p(2′OMeC)], in that order: 4.7 mg, 94.88% and 0.09.
For `CO[C@@H]1[C@H](O)[C@@H](COP(=O)(O)O[C@H]2[C@@H](OC)[C@H](n3ccc(N)nc3=O)O[C@@H]2COP(=O)(O)OP(=O)(O)OP(=O)([O-])OC[C@H]2O[C@@H](n3c[n+](C)c4c(=O)[nH]c(N)nc43)[C@H](O)[C@@H]2O)O[C@H]1n1ccc(N)nc1=O` [Cap analog 11, m7G(5′)ppp(5′)(2′OMeC)p(2′OMeC)], in that order: 4.7 mg, 95.2% and 0.31.

The values above are taken from US20230304058A1, “NOVEL 5'CAP ANALOG HAVING CAP2 STRUCTURE AND PREPARATION METHOD THEREFOR” (Shenzhen Rhegen Biotechnology Co., Ltd., priority 2020, published 2023).
